{"source": "patent US11911514B2", "about": "“Extended-release pharmaceutical composition containing lacosamide” (WHAN IN Pharmaceutical Company, priority 2018, dated 2024)", "origin": "cited, not measured here", "test_system": "patients with epilepsy", "conditions": "taking 400 mg"}
{"smiles": "COC[C@@H](NC(C)=O)C(=O)NCc1ccccc1", "note": "[lacosamide]", "values": [{"measurement": "Number of patients with seizures reduced by more than 50%", "value": "38-49%"}]}
